Data set [1] addresses T1, EPAC1 (Homo sapiens (Human), UniProt O95398).
In data set [2] the target is T1, EPAC1. To be noted: read-out: IC50 in inhibiting EPAC1; reference compound, Zhu et al., Sci. Rep. (2015); cited from earlier work.
For data set [3] the following is noted: mice, single IP injection 10 mg/kg. On the procedure:
In vivo pharmacokinetic studies were performed in four week old female C57BL6/N mice.

Data set [4] deals with EPAC2 (Mus musculus (Mouse), UniProt Q9EQZ6).
Protocol: In Vitro Evaluation of EPAC2 Inhibition.
In vitro EPAC GEF activity was acquired as previously described (Zhu et al., Sci. Rep. (2015) 5:9344). Briefly, the assay was performed using 500 nM Rap1b-BODIPY-GDP and 200 nM EPAC proteins in buffer containing 50 mM Tris-HCl pH 7.5, 50 mM NaCl, 5 mM MgCl2, 1 mM DTT, 50 mM GDP and the indicated concentrations of test compounds at room temperature using half-area 96-well plates (Corning Costar 3915). The exchange reaction was monitored using a Spectramax M2 Plate Reader (Molecular Devices) with the excitation/emission wavelengths set at 485/515 nm. The reaction rate constant (kobs) was determined by globally fitting the experimental data to a single exponential equation.
Data set [5] relates to OVA-specific IgG1 antibodies. As to conditions: mouse, in vivo.
In data set [6] the test system is R. australia. To be noted: HUVEC cells, vs vehicle.
The test system of data set [7] is R. australia. As to conditions: 10 mg/kg IP daily, lethal dose of R. australia. On the procedure:
WT C57BL/6 mice were treated with vehicle or ESI-09 (10 mg/kg, IP) daily. Five days after the treatment, mice were challenged with lethal dose of R. australia and continued ESI-09 daily treatment.

The subject of the next data set is leptin. To be noted: wild-type mice, 50 mg/kg oral gavage for 3 weeks, relative to vehicle. As to the method: (§1) To explore the feasibility of increasing leptin sensitivity by targeting Epac1 using small molecules, organotypic brain slice cultures were prepared from 11-day old wild-type C57BL/6 mice. After 7 days ex vivo culture, treatment of the brain tissue with the Epac specific antagonist ESI-09 led to an enhanced pSTAT3 Y705 level both at the basal state and in response to leptin stimulation. […] These pharmacological data are in agreement with results obtained using Epac1 KO mice and further confirm that inhibition of Epac1 enhances leptin signaling in the hypothalamus. To further investigate the therapeutic potential of this small molecule, wild-type mice were with ESI-09 (50 mg/kg) or vehicle (corn oil) by oral gavage for 3 weeks.

A further data set deals with pSTAT3 Y705. As to conditions: brain slices, basal state and in response to leptin stimulation. On the procedure: as §1
Data set [8] relates to EPAC2. As to conditions: read-out: IC50 against EPAC2. From the text: (§2) Given the physiological and pathophysiological significance of EPAC proteins, developing pharmacological EPAC modulators has attracted more and more attention. Most EPAC agonists are derivatives of cAMP, while non-cyclic nucleotide ligands usually display EPAC inhibitory activities. Cheng group developed a sensitive and robust fluorescence-based high throughput (HTS) assay, (Tsalkova et al., PloS one, (2012) 7:e30441) and discovered a series of non-cyclic nucleotide EPAC inhibitors (Tsalkova et al., Proc. Natl. Acad. Sci. U.S.A., (2012) 109:18613-18).

For data set [9], the target named is T1, EPAC1. As to conditions: at 100 μM.
From the text: as §2

Structures are written as SMILES. Like-named read-outs stand apart in the source and are kept apart here.

The text below walks through data of patent publication US11124489B2, “EPAC antagonists” (priority 2017, dated 2021).

In the case of `CC(C)(C)c1cc(C(=O)/C(C#N)=N/Nc2cccc(Cl)c2)no1` [ESI-09], the “Relative GEF activity, EPAC1-mediated Rap1b-bGDP exchange” value at EPAC1 [1] is “Dose-dependent inhibition”. Further, the half-inhibitory concentration (IC50) at EPAC1 [1] (read-out: Rap 1b-bGDP EPAC1 IC50) was 10.8 ± 1.6 µM; at EPAC1 [2], 10.8 µM; at EPAC2 [4] (read-out: Rap1b-bGDP EPAC2 IC50, apparent IC50, EPAC2 GEF activity, 20 μM cAMP), 4.4 µM. In [3], this compound came in with a half-life of 3.5 h. The maximal blood level in data set [3] was 42,520 ng/ml. Also, in data set [3], the “time of maximal blood level” value turned out to be 0.5 h. For the same compound, on EPAC2 [4] (EPAC2 vs EPAC1), the “fold more potent on EPAC2 inhibition than on EPAC1” value is reported as 2.5 fold. In addition, at EPAC2 [4] (in the presence of 20 μM cAMP, figure), the “Relative GEF activity, EPAC2-mediated Rap1b-bGDP exchange” value is recorded as “Dose-dependent inhibition”. In addition, the “level of serum OVA-specific IgG1 antibodies” value in data set [5] was “significantly higher”. For the same compound, the “number of intracellular R. australia” value with R. australia [6] was “dramatically reduced”. Further, the “share of treatment group showing sign of sickness” value in the data set on R. australia [7] came to 10%. Besides, the Plasma leptin entry in the data set on leptin is listed as “significantly reduced”. Moreover, the “pSTAT3 Y705 level” value in the data set with pSTAT3 Y705 is “enhanced”.
`Cc1cc(C)c(Nc2ccc(Cl)c(C(F)(F)F)c2)c(C)c1` [MAY0132]: the IC50 in the data set on EPAC2 [8] is 0.4 µM. In addition, the “inhibition against EPAC1” value against EPAC1 [9] was “no significant inhibition”.
